In ChEMBL document CHEMBL1201862, “PubChem BioAssay data set” (2004):
The source made the active and inactive calls.

Assays:
[1] = NIH3T3 cell viability loss – ATP luminescence, mouse fibroblasts, counter-screen, dose response (AID 2010); format: functional, cell-based;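 also: cells exposed to compound for about 90 hours before reading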
[2] = Trypanosoma cruzi growth suppression in host cells – NIH3T3 host cells, beta-gal luminescence, confirmation (AID 2044); format: functional, cell-based;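 also: intracellular parasites grown in NIH/3T3 mouse fibroblasts as host cells; luminescent beta-galactosidase reporter signal from transgenic T. cruzi replicating inside host cells; inhibitors lower the luminescence signal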
[3] = target: T1, Heat shock factor protein 1 (Mus musculus, UniProt P38532); experiment: enhancement of HSF1-driven luciferase signal – cell-based, NIH3T3, luminescence, dose retest, confirmation (AID 435004); format: functional;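 also: stress induced by proteasome inhibitor MG132 added 30 min after compound; luciferase reporter driven by HSF1 response element in NIH3T3 cells; actives raise luminescence as potentiators of the MG132 stress response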
T1 sequence (P38532 whole entry): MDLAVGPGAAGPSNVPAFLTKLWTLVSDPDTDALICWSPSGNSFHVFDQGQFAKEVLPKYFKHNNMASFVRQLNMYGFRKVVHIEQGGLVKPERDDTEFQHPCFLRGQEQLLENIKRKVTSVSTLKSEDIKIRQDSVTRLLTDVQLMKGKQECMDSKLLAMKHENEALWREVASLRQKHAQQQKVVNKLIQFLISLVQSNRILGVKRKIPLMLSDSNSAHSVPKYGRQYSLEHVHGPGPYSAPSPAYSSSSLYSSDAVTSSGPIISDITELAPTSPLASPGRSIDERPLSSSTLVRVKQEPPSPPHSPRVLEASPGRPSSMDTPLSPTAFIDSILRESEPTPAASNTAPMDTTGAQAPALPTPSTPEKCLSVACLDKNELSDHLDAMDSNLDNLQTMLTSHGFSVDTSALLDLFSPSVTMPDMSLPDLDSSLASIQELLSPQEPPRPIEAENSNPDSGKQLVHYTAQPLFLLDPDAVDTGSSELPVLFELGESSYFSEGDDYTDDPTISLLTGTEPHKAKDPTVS

CAAX prenyl protease 2 = target: T2, CAAX prenyl protease 2 (Saccharomyces cerevisiae S288c, UniProt Q03530); experiment: inhibition of Rce1p peptide cleavage – biochemical, plate reader, dry powder retest, dose response (AID 588851)
T2 sequence (Q03530 whole entry): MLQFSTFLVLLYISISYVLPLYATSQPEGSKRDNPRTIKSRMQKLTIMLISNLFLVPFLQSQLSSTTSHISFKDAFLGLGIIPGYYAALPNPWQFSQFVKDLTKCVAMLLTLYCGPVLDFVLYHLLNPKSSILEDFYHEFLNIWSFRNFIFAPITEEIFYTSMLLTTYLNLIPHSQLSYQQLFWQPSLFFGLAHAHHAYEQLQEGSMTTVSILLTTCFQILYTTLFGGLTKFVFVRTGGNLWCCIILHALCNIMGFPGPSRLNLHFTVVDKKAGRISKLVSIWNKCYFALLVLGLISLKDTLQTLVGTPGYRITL

Insulin-degrading enzyme [4] = target: T3, Insulin-degrading enzyme (Homo sapiens, UniProt P14735); experiment: recombinant IDE activation, cell-free – biochemical, fluorescence polarization, counter-screen for IDE activator project, dose response (AID 588681)
T3 sequence (P14735 whole entry): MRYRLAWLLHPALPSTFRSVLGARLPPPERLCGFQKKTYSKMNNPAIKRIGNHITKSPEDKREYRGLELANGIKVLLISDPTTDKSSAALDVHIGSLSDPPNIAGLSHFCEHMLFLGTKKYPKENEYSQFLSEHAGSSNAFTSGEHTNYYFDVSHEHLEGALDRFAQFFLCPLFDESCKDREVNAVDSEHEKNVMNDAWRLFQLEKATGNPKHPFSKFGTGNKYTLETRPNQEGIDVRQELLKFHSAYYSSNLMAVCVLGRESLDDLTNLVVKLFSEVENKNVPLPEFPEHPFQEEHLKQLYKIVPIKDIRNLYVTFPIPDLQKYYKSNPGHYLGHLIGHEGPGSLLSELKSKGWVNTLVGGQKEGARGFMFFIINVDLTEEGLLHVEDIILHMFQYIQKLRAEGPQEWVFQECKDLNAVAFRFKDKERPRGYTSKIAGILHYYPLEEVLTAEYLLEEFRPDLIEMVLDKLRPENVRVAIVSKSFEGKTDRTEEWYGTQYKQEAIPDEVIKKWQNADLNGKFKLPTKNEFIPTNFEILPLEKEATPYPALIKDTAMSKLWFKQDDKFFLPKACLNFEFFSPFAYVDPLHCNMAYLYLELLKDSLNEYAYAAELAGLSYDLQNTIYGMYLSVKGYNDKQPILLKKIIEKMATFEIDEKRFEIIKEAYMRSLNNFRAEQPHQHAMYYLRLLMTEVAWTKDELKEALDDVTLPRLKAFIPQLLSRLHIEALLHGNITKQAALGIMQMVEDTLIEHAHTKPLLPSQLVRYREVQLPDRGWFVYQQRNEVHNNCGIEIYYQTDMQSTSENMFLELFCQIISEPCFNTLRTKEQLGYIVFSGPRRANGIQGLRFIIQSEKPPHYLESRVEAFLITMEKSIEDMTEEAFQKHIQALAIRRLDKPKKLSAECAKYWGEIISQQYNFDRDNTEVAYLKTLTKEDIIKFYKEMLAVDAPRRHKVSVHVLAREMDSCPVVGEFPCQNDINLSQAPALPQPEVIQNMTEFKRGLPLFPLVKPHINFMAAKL

[5] = target: T4, Calpain-2 catalytic subunit (Sus scrofa, UniProt P43367); experiment: m-calpain protease blockers, concentration series – biochemical, fluorogenic peptide substrate, dose response (AID 1420); format: functional
T4 sequence (P43367 whole entry): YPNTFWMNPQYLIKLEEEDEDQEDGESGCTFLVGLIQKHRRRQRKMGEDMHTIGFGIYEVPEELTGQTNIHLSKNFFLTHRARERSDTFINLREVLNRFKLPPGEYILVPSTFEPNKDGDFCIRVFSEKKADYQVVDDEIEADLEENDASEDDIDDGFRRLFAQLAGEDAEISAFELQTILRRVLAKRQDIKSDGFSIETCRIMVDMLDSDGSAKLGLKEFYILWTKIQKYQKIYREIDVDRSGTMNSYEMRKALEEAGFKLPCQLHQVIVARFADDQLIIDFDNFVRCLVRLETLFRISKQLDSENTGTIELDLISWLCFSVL

HEK293 [6] = experiment: membrane integrity loss in HEK cells – cell-based, fluorescence, cytotoxicity control for IDE activator project, dose response (AID 588440); format: functional; conditions: Homo sapiens;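 also: cytotoxicity by LDH release measuring loss of membrane integrity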
Insulin-degrading enzyme [7] = target: T3, Insulin-degrading enzyme; experiment: cellular IDE activation of Abeta substrate cleavage – fluorescence polarization, HEK cells, dose response (AID 588439); format: functional, cell-based
HEK293 [8] = experiment: optical interference in Abeta FP readout, dose response, artefact control for IDE activator project, biochemical, fluorescence polarization (AID 588442); format: functional, cell-based; conditions: Homo sapiens
[9] = (§1) Counterscreen for antagonists of the orexin 1 receptor (OX1R; HCRTR1): Fluorescence-based cell-based high throughput dose response assay to identify antagonists of the parental CHO cell line. [Related pubchem assays (depositor defined):AID434989, AID435008, AID463079, AID485270, AID492963, AID492964, AID492965, AID493232, AID504699, AID504701]; format: functional
[10] = target: T5, Orexin/Hypocretin receptor type 1 (Homo sapiens, UniProt O43613); experiment: (§2) Fluorescence-based cell-based high throughput dose response assay for antagonists of the orexin 1 receptor (OX1R; HCRTR1). [Related pubchem assays (depositor defined):AID434989, AID435008, AID463079, AID485270, AID492963, AID492964, AID492965, AID493232, AID504717, AID504718]; format: functional
T5 sequence (O43613 whole entry): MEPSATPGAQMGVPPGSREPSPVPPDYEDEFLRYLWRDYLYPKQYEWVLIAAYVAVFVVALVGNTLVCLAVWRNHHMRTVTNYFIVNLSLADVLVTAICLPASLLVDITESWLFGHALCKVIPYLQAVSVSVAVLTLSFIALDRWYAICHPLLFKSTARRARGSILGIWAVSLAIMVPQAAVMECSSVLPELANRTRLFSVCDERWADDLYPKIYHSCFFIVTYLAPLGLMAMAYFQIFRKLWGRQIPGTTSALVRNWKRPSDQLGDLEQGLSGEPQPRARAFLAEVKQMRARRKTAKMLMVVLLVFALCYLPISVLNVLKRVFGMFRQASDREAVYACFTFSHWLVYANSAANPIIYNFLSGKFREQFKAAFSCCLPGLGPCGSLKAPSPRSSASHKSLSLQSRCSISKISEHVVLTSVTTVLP

Orexin receptor type 2 [11] = target: T6, Orexin receptor type 2 (Homo sapiens, UniProt O43614); experiment: Counterscreen assay for antagonists of the orexin 1 receptor (OX1R; HCRTR1): Fluorescence-based cell-based dose response assay for antagonists of the orexin 2 receptor (OX2R; HCRTR2), run by assay provider.; format: functional
T6 sequence (O43614 whole entry): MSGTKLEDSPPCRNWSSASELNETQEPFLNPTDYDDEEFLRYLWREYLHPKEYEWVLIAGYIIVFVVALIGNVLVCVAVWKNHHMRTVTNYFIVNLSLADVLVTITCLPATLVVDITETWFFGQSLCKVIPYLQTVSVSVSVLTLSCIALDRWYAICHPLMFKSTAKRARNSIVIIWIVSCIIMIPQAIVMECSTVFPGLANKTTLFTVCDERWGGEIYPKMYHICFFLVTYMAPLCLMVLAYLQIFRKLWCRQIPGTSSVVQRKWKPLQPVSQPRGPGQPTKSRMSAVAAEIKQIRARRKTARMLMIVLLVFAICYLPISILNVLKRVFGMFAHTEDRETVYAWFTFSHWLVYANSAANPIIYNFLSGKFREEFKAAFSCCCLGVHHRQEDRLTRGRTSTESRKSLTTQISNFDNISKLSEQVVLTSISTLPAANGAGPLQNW

Orexin receptor type 2 [12] = target: T6, Orexin receptor type 2; experiment: Counterscreen assay for antagonists of the orexin 1 receptor (OX1R; HCRTR1): Homogeneous Time Resolved Fluorescence (HTRF)-based cell-based dose response assay for antagonists of the orexin 2 receptor (OX2R; HCRTR2), run by assay provider.; format: functional
CHO-K1 = experiment: as §1, with “Homogeneous time resolved fluorescence (HTRF)-based” for “Fluorescence-based”, “cell-based” for “cell-based high throughput”, “CHO-K1” for “CHO”; format: functional; conditions: Cricetulus griseus;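 also: potency for inhibition of ATP-stimulated IP1 production as antagonists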
[13] = target: T5, Orexin/Hypocretin receptor type 1; experiment: as §2, with “Homogeneous Time Resolved Fluorescence (HTRF)-based” for “Fluorescence-based”; format: functional
[14] = target: T7, Sentrin-specific protease 7 (Homo sapiens, UniProt Q9BQF6); experiment: inhibition of human SENP7 cleavage activity – biochemical, luminescence, SAR follow-up (AID 504497); format: functional
T7 sequence (Q9BQF6 whole entry): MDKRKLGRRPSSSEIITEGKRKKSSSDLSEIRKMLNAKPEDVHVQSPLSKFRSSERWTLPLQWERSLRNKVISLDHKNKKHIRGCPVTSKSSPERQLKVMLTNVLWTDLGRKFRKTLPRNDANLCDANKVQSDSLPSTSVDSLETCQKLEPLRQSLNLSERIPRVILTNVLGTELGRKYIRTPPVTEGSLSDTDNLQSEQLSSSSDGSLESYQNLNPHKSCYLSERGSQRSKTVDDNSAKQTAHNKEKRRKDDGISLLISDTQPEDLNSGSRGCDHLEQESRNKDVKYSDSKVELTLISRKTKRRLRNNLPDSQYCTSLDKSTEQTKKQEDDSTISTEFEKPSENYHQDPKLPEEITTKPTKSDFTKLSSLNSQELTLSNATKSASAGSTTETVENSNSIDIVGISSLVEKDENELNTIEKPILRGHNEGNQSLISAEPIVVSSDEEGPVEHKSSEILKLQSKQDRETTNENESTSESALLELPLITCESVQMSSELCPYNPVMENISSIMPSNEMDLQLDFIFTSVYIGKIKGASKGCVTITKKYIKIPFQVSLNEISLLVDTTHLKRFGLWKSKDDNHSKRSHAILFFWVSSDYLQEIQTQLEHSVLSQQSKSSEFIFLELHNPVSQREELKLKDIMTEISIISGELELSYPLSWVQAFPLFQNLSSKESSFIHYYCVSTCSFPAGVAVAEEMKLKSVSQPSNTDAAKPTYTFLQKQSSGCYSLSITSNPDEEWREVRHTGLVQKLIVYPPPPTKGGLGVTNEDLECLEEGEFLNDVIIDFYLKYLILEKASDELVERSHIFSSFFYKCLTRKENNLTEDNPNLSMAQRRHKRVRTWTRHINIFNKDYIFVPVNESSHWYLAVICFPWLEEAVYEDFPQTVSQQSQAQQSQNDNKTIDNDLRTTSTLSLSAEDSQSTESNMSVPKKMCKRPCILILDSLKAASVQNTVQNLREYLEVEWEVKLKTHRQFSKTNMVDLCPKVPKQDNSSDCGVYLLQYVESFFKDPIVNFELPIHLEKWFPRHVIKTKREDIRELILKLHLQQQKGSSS

[15] = target: T8, Sentrin-specific protease 6 (Homo sapiens, UniProt Q9GZR1); experiment: SAR Analysis of small molecule inhibitors of Sentrin-specific protease 6 (SENP6) using a Luminescent assay. [Related pubchem assays (depositor defined):AID2582, AID2599]; format: functional
T8 sequence (Q9GZR1 whole entry): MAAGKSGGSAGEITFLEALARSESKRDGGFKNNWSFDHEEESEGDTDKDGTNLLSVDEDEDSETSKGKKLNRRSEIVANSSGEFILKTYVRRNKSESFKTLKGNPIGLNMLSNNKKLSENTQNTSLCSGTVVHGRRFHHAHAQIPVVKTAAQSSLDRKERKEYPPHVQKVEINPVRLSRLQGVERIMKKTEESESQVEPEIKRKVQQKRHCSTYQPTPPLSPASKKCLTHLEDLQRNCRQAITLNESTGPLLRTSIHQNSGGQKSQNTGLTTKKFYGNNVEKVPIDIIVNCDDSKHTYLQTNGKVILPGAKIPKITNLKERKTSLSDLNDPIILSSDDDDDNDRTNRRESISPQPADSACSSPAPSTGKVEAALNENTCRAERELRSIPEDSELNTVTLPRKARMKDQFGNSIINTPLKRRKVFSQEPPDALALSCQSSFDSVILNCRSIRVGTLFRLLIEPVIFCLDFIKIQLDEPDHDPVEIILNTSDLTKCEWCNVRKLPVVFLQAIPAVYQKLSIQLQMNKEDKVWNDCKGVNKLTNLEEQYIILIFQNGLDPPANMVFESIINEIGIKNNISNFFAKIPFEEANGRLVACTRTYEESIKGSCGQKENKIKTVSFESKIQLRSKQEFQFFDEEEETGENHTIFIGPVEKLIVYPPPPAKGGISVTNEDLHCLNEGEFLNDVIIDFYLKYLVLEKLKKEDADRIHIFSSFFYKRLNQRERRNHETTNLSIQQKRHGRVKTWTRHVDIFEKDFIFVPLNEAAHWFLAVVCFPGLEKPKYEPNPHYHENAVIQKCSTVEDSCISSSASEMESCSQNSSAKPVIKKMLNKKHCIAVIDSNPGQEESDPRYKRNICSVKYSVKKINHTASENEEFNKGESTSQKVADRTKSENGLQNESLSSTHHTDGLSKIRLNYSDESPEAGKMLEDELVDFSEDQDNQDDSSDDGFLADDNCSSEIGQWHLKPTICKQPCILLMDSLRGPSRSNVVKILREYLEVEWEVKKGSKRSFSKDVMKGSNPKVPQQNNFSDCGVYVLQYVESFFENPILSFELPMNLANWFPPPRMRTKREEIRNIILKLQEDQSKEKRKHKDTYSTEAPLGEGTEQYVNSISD

[16] = target: T9, Sentrin-specific protease 8 (Homo sapiens, UniProt Q96LD8); experiment: inhibition of human SENP8 cleavage activity – biochemical, luminescence, SAR follow-up (AID 504501); format: functional
T9 sequence (Q96LD8 whole entry): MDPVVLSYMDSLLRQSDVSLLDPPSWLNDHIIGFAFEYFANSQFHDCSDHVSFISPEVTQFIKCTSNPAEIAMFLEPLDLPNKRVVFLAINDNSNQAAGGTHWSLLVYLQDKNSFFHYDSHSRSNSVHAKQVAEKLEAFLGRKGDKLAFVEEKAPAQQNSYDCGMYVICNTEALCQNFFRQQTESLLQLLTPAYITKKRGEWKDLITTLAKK

Caspase-3 = target: T10, Caspase-3 (Homo sapiens, UniProt P42574); experiment: SAR Analysis of small molecule inhibitors of Sentrin-specific proteases (SENPs) using a Caspase-3 Selectivity assay. [Related pubchem assays (depositor defined):AID2540, AID2599, AID434973, AID489001]; format: functional
T10 sequence (P42574 whole entry): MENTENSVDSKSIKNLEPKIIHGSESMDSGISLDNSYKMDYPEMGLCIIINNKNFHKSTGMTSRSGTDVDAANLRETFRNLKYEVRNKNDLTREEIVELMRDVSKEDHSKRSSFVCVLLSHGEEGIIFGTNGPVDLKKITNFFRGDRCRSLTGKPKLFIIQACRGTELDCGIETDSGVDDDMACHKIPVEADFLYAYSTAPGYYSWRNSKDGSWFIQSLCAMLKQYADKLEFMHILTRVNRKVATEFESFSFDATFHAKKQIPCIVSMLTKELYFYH

COc1ccc(-n2c(SCc3ccc([N+](=O)[O-])cc3)nnc2-c2ccc(C)cc2)cc1
EC50 [1]: > 60 µM (inconclusive)
EC50 [2]: 1.35 µM (active)
EC50 [3]: > 260 µM (inactive)
AC50 (CAAX prenyl protease 2): 5.39 µM (active)

COc1ccc(OCCNc2cc(N3CCOCC3)ccc2[N+](=O)[O-])cc1
EC50 (Insulin-degrading enzyme [4]): > 54.7 µM (inactive)
IC50 [5]: 13.8 µM (not active)
IC50 (HEK293 [6]): > 89.3 µM (inactive)
EC50 (Insulin-degrading enzyme [7]): > 54.7 µM (inactive)
EC50 (HEK293 [8]): > 56 µM (inactive)

COc1cccc(/C=C2/Oc3ccccc3N(CC(=O)NCC3CCCO3)C2=O)c1 (centres undefined)
IC50 [9]: > 49.7 µM (inactive)
IC50 [10]: 0.426 µM (active)
IC50 (Orexin receptor type 2 [11]): 3.82 µM (active)
IC50 (Orexin receptor type 2 [12]): 0.96 µM (active)
IC50 (CHO-K1): > 66.2 µM (inactive)
IC50 [13]: 0.254 µM (active)

O=C(Nc1ccncc1)c1ccc2c(c1)OCO2
IC50 [14]: 33.8 µM (active)
IC50 [15]: > 99 µM (inactive)
IC50 [16]: > 99 µM (inactive)
IC50 (Caspase-3): 14.4 µM (active)
